Results as given in patent US10555919B2, “Melatonin in autoimmune disease” (The Brigham and Women's Hopsital, Inc., priority 2014, dated 2020).
Entries after “also recorded” stand apart in the source; their conditions may differ.

Assays:
[1] = test system: 2D2+ transgenic T cells; experiment: In vitro activation of naive 2D2+ transgenic T cells / CD4+ T cells (MOG35-55 and DCs or anti-CD3 and anti-CD28); format: cell-based, mice
[2] = test system: human Th1 cells; experiment: In vitro human Th1 differentiation; format: cell-based; conditions: 500 ng/ml; IL-12
Protocol: In vitro human T cell differentiation. For Th17 differentiation, naive CD45RA+ CD4+ T cells were isolated from PBMCs with magnetic beads (Naive Human CD4+ T Cell Isolation Kit II, Miltenyi Biotec) and seeded at a density of 5×10^5 cells/ml in 24-well plates coated with anti-CD3 and (2 μg/ml) and soluble anti-CD28 and cultured in the presence of the following cytokines IL-1β (25 ng/ml), IL-6 (50 ng/ml), and TGF-β1 (2 ng/ml) and neutralizing antibodies to IFN-g ([…]) and IL-4 (10 microgram/ml). Alternatively, Th17 cells were differentiated by using IL-1β (25 ng/ml), IL-6 (50 ng/ml), and IL-23 (50 ng/ml) and neutralizing antibodies to IFN-g ([…]) and IL-4 (10 microgram/ml). For Th1 differentiation naïve CD4+T cells are cultured in the presence of IL-12 (20 ng/ml) and anti-IL-4 (10 μg/ml).

[3] = test system: human CD4+ T cells activated under Tr1 polarizing conditions; experiment: In vitro human Tr1 differentiation; format: cell-based; conditions: 500 ng/ml
From the text: We then studied the effects of melatonin on human CD4^+ T cells. In addition, we also analyzed the effects of agomelatine, which activates melatonin-dependent signaling (Hickie and Rogers, 2011). Based on the effects of melatonin administration on T cells during EAE, we focused our studies on human Th17 and Tr1 cells. Melatonin and agomelatine reduced the production of IL-17, RORC and IL17A expression by human CD4^+ T cells activated under Th17 polarizing conditions (FIGS. 3a-c and FIG. 8), no effect was detected on the differentiation of human Th1 cells (FIGS. 3d-f). Concomitantly, melatonin and agomelatine increased IL10 expression.

[4] = test system: murine Th17 cell differentiation; experiment: In vitro mouse Th17 cell differentiation; format: cell-based; conditions: melatonin 2 ng/ml
Protocol: For intracellular cytokine staining, cells were stimulated for 4 h at 37° C. with phorbol 12-myristate 13-acetate (50 ng/ml; Sigma), ionomycin (1 μg/ml; Sigma) and monensin (GolgiStop; 1 μg/ml; BD Biosciences). After being stained for surface markers, cells were fixed and made permeable according to the manufacturer's instructions (BD Biosciences). All antibodies against cytokines were from Biolegend. All experiments were started at the same time (8-9 am). Data were collected with a LSR II or FACSAria (BD Biosciences), then were analyzed with FlowJo software (Treestar).
(§1) Naive CD4+ T cells (CD4+CD44loCD62LhiCD25−) were from the spleen and lymph node of C57BL/6 wild-type, MTNR1A−, NFIL3−, REV-ERBα, C/EBPα-deficient or RORα-deficient mice using magnetic beads (CD4+ T cell isolation kit, Miltenyi Biotec). All experiments were started between 7 and 9 am. Cells were activated with plate-bound anti-CD3 (2 μg/ml; 14-0031-86; eBioscience) and anti-CD28 (2 μg/ml; 16-0281-86; eBioscience). Mouse IL-27 (30 ng/ml; 34-8271; Biolegend) was added for the generation of Tr1 cells. IL-6 (30 ng/ml; 406-ML-025; R&D Systems), TGF-β1 (15 ng/ml; 130-095-067; Miltenyi Biotec), anti-IL-4 (2.5 μg/ml; C17.8; Biolegend) and anti-IFN-γ (5 μg/ml; XMG1.2; Biolegend) were added for the generation of Th17 cells. Recombinant mouse IL-23 (30 ng/ml; 1887-ML-010; R&D Systems) was added at day 2. For some experiments IL-6 and […] (10 ng/ml; 401-ML-025; R&D Systems) or TGF-β1 and IL-21 (100 ng/ml; 594-ML-010; R&D Systems) were used in instead for Th17 cell differentiation. IL-12 (30 ng/ml; 419-ML-010; R&D Systems) and anti-IL-4 (2.5 μg/ml; C17.8; Biolegend) were used for the generation of Th1 cells. IL-4 (30 ng/ml; 404-ML-010; R&D Systems) and anti-IFN-γ (5 μg/ml; XMG1.2; Biolegend) was added for the generation of Th2 cells. TGF-β1 (15 ng/ml; 130-095-067; Miltenyi Biotec) was used for the generation of Foxp3+ Tregs. Melatonin (Gador, Argentina), Agomelatin, and CGP-52608 (Sigma-Aldrich) were added at the start of the cultures and at day 2, at a final concentration of 2-20 ng/ml.
Secreted cytokines were measured in tissue culture supernatants after 72-96 hs by enzyme-linked immunosorbent assay as previously described (Farez et al., 2009).

[5] = test system: Tr1 cells; experiment: In vitro mouse Tr1 cell differentiation; format: cell-based
Protocol: as §1

[6] = test system: ROR-α; experiment: Chromatin immunoprecipitation with anti-ROR-α at the il10 promoter; format: cell-based, mouse; conditions: T-cell activation under Tr1 polarizing conditions in the presence of melatonin
Protocol: DNA-protein complexes in cells were crosslinked with 4% paraformaldehyde and lysed with 0.35 ml lysis buffer (1% SDS, 10 mM EDTA and 50 mM Tris-HCl, pH 8.1) containing 1×protease inhibitor ‘cocktail’ (Roche Molecular Biochemicals). Chromatin was sheared by sonication and supernatants collected after centrifugation were diluted in buffer (1% Triton X-100, 2 mM EDTA, 150 mM NaCl and 20 mM Tris-HCl, pH 8.1). 5 μg antibody was prebound for a minimum of 6 hs to protein A and protein G Dynal magnetic beads (Invitrogen) and samples were washed three times with ice-cold PBS containing 5% BSA, and then were added to the diluted chromatin, followed by immunoprecipitation overnight. The magnetic bead-chromatin complexes were then washed three times in radioimmunoprecipitation buffer (50 mM HEPES, pH 7.6, 1 mM EDTA, 0.7% Na deoxycholate, 1% NP-40 and 0.5 M LiCl), followed by two washes with Tris-EDTA buffer. Immunoprecipitated chromatin was then extracted with a solution of 1% SDS and 0.1 MNaHCO3 and was heated at 65° C. for at least 6 h for reversal of the paraformaldehyde cross-linking. DNA fragments were purified with a QIAquick DNA purification Kit (Qiagen) and were analyzed by SYBR Green real-time PCR (Takara Bio).

[7] = during Th17 cell differentiation, 3 days

COc1ccc2[nH]cc(CCNC(C)=O)c2c1 [Melatonin, N-Acetyl-5-methoxytryptamine]
ability of melatonin-pretreated DCs to activate 2D2+ T cells ([1]; in the presence of MOG35-55): did not affect | apoptosis in CD4+ T cells (annexin V and propidium iodide staining, Bcl-xl levels) ([1]; stimulated with antibodies against CD3 and CD28, 3 days): did not increase | in vitro activation of naive 2D2+ transgenic T cells ([1]; with MOG35-55 and DCs or with antibodies to CD3 and CD28 in the absence of DCs): suppressed | differentiation of human Th1 cells [2]: no effect | IL-10 production [3]: increased | differentiation of MTNR1A-deficient (MTNR1A KO) Th17 cells ([4]; MTNR1A KO): failed to suppress; also recorded: boosted | expression of both ROR-α and ROR-γt ([4]; Th17 polarizing conditions): reduced | expression of IL-10 ([4]; Th17 polarizing conditions, 72 hs): increased | expression of the ROR-γt repressor NFIL3 [4, 7]: increase | nr1d1 expression [4, 7]: suppressed | differentiation of Th17 cells (rorc, IL-17, IL-23 receptor) ([4]; wild type, agomelatine 20 ng/ml, ramelteon 10 ng/ml, CGP 52608 20 ng/ml): interfered | expression of IL-10 and the Tr1-associated molecules il21, ahr and cmaf ([5]; Tr1 polarizing conditions, melatonin 2 ng/ml): boosted | suppressive activity of Tr1 cells in vitro ([5]; co-culture with CFSE-labeled CD4+ T cells, 48 hs): boosted | binding of ROR-α to the il10 promoter [6]: increased
